The record followed here is patent US20090247616A1, “USE OF BENZO-FUSED HETEROCYLE SULFAMIDE DERIVATIVES FOR THE TREATMENT OF ANXIETY” (priority 2008, published 2009).

One series has as its system Male Rj:NMRI mice. In words: Elevated Plus Maze, Mouse (EPM). It is filed as in vivo. To be noted: 16 mg/kg p.o. (positive control). An excerpt:
Rodents avoid open spaces (in the case of the assay apparatus, the open arms of an elevated plus-maze). Compounds which have anti-anxiety activity increase exploratory activity of the rodents in the open arms of the elevated plus-maze. The EPM assay was run according to the procedure as described by Handley and Mithani (Naunyn. Schmied. Arch. Pharmacol., 327, 1-5, 1984).
Male Rj:NMRI mice, weighing 20-30 g (max. range per experiment=5 g) at the beginning of the experiments, were obtained from Elevage Janvier, 53940 Le Genest-Saint-Isle, France and used in the assay. The animals were delivered to the laboratory at least 5 days before the experiments during which time they were acclimatized to laboratory conditions. The mice were housed in groups of 10 in Macrolon cages (25×19×13 cm) on wood litter (Litalabo—SPPS, 95100 Argenteuil, France) with free access to food (Code 113—SAFE, 89290 Augy, France) and water until tested (or as indicated otherwise). The animal house was maintained under artificial lighting (12 hours) between 7:00 and 19:00 in a controlled ambient temperature of 21±3° C., and relative humidity between 30-80%.
The elevated plus-maze consisted of 4 arms of equal length and width (14×5 cm) arranged in the form of a plus sign (+). Two opposite arms were enclosed by 12 cm high walls (closed arms). The 2 other arms had no walls (open arms). The maze was raised 56 cm above the floor. A mouse was placed in the centre of the plus-maze and left to explore the maze for 5 minutes. The number of entries into the open and closed arms and the time spent in the open arms was recorded. Ten (10) mice were used for each study group. The test was performed blind.
Compound #8 was evaluated at 30 mg/kg, 60 mg/kg and 120 mg/kg doses, administered p.o. 60 minutes before the test, and compared with a vehicle control group. Compound #8 was homogenized and dispersed using a mortar and a pestle in 0.2% hydroxypropylmethylcellulose (HPMC) in distilled water, which served as the vehicle. As a positive control, Clobazam (16 mg/kg p.o.), was administered under the same experimental conditions. Clobazam as URBANYL® tablets (16 mg/kg p.o.) were dispersed in 0.2% hydroxypropylmethylcellulose (HPMC) in distilled water for administration. Each experiment therefore included 5 study groups of 10 mice each.
(§1) Data were analyzed by comparing groups treated with compound #8 with groups treated with vehicle control using unpaired Student's t tests.

A further series concerns mouse. Nature of the series: Four Plate Test, Mouse. It is filed as in vivo. The settings on record: 32 mg/kg p.o. (positive control).
Description: The Four Plate assay was run according to the procedure as described by Aron et al (Neuropharmacology, 10, 459-469, 1971). In this assay, the rodent experiences an electric shock upon crossing from one plate to another. Anxiolytics (such as benzodiazepines) increase the number of punished crossings.
Animals were placed individually in a white plastic enclosure containing a floor consisting of 4 metal plates connected to an electric shock generator (Apelex: Type 011346). The mouse was left to explore freely for 15 seconds. Then, every time the mouse crossed from one plate to another, it received a weak electric shock (2.5 mA, 1.5 s). The number of punished crossings were counted during a 1 minute test. Ten (10) mice were used for each study group. The test was performed blind.
Compound #8 was evaluated at 30 mg/kg, 60 mg/kg and 120 mg/kg doses, administered p.o. 60 minutes before the test, and compared with a vehicle control group. Compound #8 was homogenized and dispersed using a mortar and a pestle in 0.2% hydroxypropylmethylcellulose (HPMC) in distilled water, which served as the vehicle. As a positive control, Clobazam (32 mg/kg p.o.), was administered under the same experimental conditions. […]
as §1

The mark [1] stands for this setting: same experimental conditions, 10 mice.

As for `NS(=O)(=O)NCC1CCc2ccccc2O1` (stereo not drawn), the melting point – broadly, the temperature of the solid-liquid transition – lay in the range of 100 to 101 °C.
For `CN1C(=O)CC(=O)N(c2ccccc2)c2cc(Cl)ccc21` [CLOBAZAM, Clobazam], in the series with Male Rj:NMRI mice (setting [1]), the “Closed Arms Number of Entries, Mean ± S.E.M.” value is 11.9 ± 1.5 (*); the “Open Arms Number of Entries, Mean ± S.E.M.” value is on record as 11.7 ± 1.1 (***); the “Open Arms Time Spent (sec), Mean ± S.E.M.” value turned out to be 120.1 ± 13.1 s. Further, in the series on Male Rj:NMRI mice (change from vehicle control), the “Closed Arms Number of Entries, % change” value was “+59%”; the “Open Arms Number of Entries, % change” value was “+350%”; the “Open Arms Time Spent, % change” value was “+567%”. Also, in the series on mouse (setting [1]), the “Number of Punished Crossings, Mean ± S.E.M.” value is 9.9 ± 1.2 (***). Also, in the series on mouse (change from vehicle control), the “Number of Punished Crossings, % Change” value is on record as “+154%”.
